Results reported in PubChem BioAssay (NCI).
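Values below derive from 48-hour exposures of cells grown in 96-well plates, with endpoints linearly interpolated between the two concentrations bracketing the appropriate inhibition level. TGI: concentration producing complete growth inhibition.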

Legend:
Test in all cases: NCI anticancer screen, dose series, 48 h
[1] = system: HCT-116 colon
[2] = system: OVCAR-5 ovarian
[3] = system: ACHN renal
[4] = system: SF-295 CNS
[5] = system: SNB-75 CNS
[6] = system: HOP-62 NSCLC
[7] = system: UACC-62 melanoma
[8] = system: MALME-3M melanoma
[9] = system: MCF7 breast
[10] = system: SW-620 colon
[11] = system: SK-MEL-2 melanoma
[12] = system: EKVX NSCLC
[13] = system: SK-MEL-5 melanoma
[14] = system: CAKI-1 renal
[15] = system: M14 melanoma
[16] = system: MDA-MB-231 breast
[17] = system: K-562 leukemia
[18] = system: SK-OV-3 ovarian
[19] = system: OVCAR-8 ovarian
[20] = system: SNB-19 CNS
[21] = system: 786-0 renal
[22] = system: NCI/ADR-RES ovarian
[23] = system: UO-31 renal
[24] = system: MDA-N
[25] = system: DU-145 prostate
[26] = system: COLO 205 colon
[27] = system: RPMI-8226 leukemia
[28] = system: HT29 colon
[29] = system: PC-3 prostate
[30] = system: A498 renal
[31] = system: HCT-15 colon
[32] = system: T-47D breast
[33] = system: SN12C renal
[34] = system: OVCAR-3 ovarian
[35] = system: HOP-92 NSCLC
[36] = system: MDA-MB-435
[37] = system: OVCAR-4 ovarian
[38] = system: HS 578T breast
[39] = system: HCC-2998 colon
[40] = system: UACC-257 melanoma
[41] = system: MOLT-4 leukemia
[42] = system: LOX IMVI melanoma
[43] = system: NCI-H23 lung
[44] = system: SF-539 CNS
[45] = system: KM12 colon
[46] = system: CCRF-CEM leukemia
[47] = system: SK-MEL-28 melanoma
[48] = system: IGROV1 ovarian
[49] = system: TK-10 renal
[50] = system: NCI-H522 lung
[51] = system: NCI-H226 lung
[52] = system: RXF 393 renal
[53] = system: A549 NSCLC
[54] = system: HL-60(TB) leukemia
[55] = system: BT-549 breast
[56] = system: NCI-H460 lung
[57] = system: U251 CNS
[58] = system: SF-268 CNS
[59] = system: SR leukemia

Measured: TGI

CN(C)CCNC1=CC(=O)c2c(O)ccc(O)c2C1=O
9.05 µM: [1]
5.61 µM: [40]
3.28 µM: [13]
9.85 µM: [50]
11.3 µM: [46]
24.3 µM: [4]
7.78 µM: [22]
25.6 µM: [12]
21.5 µM: [29] | [33]
30.3 µM: [6]
8.75 µM: [28]
39.8 µM: [51]
25.8 µM: [3]
> 40.8 µM: [31]
24.4 µM: [57]
26.7 µM: [25]
27.5 µM: [2]
6.53 µM: [54]
53.6 µM: [38]
28 µM: [30] | [49]
31 µM: [55]
7.27 µM: [9]
3.63 µM: [26]
27.3 µM: [14] | [53]
28.1 µM: [58]
31.4 µM: [52]
14.6 µM: [56]
25 µM: [16]
12.7 µM: [42]
15.7 µM: [37]
5.63 µM: [7]
25.9 µM: [19]
31.6 µM: [20]
17 µM: [23]
2.62 µM: [8]
27.8 µM: [35]
18.7 µM: [43]
25.5 µM: [32]
5.67 µM: [34]
31.9 µM: [5]
26.3 µM: [47]
> 100 µM: [17] | [41]
20.6 µM: [44]
16.7 µM: [48]
12.4 µM: [15]
3.33 µM: [36]
> 68.2 µM: [27]
15.4 µM: [21]
13.5 µM: [39]
21.2 µM: [45]
25.3 µM: [11]
10.1 µM: [10]
83.1 µM: [18]
3.55 µM: [24]

CCOC(=O)C1(C(=O)OCC)CC(=O)[C@@]2(C1)OCC[C@H]1OC(=O)C[C@H]12
not listed: [17] | [18] | [51] | [52]
> 100 µM: all other assays above

COc1cc2c3c(n(Cc4ccccc4)c(=O)c2cc1OC)-c1ccccc1C3=O
not listed: [18] | [30]
> 100 µM: all other assays above
